Experimental data reported in PMC8800111 (The Journal of Biological Chemistry, 2021).

Experiments:
Assay type in all cases: cell-based
[1] = target: proteins of U3A human fibrosarcoma cells (4462 proteins detected) (Homo sapiens, UniProt Q9HC38); settings: protein GLOD4, U3A cells
[2] = target: proteins of U3A human fibrosarcoma cells (4462 proteins detected) (Homo sapiens, UniProt Q9Y6E0); settings: protein STK24; soluble abundance after heat, U3A cells
[3] = target: proteins of U3A human fibrosarcoma cells (4462 proteins detected) (Homo sapiens, UniProt Q9UJX6); settings: protein ANAPC2; soluble abundance after heat, U3A cells
[4] = target: proteins of U3A human fibrosarcoma cells (4462 proteins detected) (Homo sapiens, UniProt O95671); settings: protein ASMTL; U3A, 10 μM, 2 h
[5] = target: proteins of U3A human fibrosarcoma cells (4462 proteins detected) (Homo sapiens, UniProt O75909); settings: protein CCNK; U3A cells
[6] = target: proteins of U3A human fibrosarcoma cells (4462 proteins detected) (Homo sapiens, UniProt Q9Y266); settings: protein NUDC; U3A cells
[7] = target: proteins of U3A human fibrosarcoma cells (4462 proteins detected) (Homo sapiens, UniProt P61313); settings: protein RPL15; U3A cells
[8] = target: proteins of U3A human fibrosarcoma cells (4462 proteins detected) (Homo sapiens, UniProt Q9Y3T9); settings: protein NOC2L; soluble abundance after heat, U3A cells
[9] = target: proteins of U3A human fibrosarcoma cells (4462 proteins detected) (Homo sapiens, UniProt P11182); settings: protein DBT; U3A cells
[10] = target: proteins of U3A human fibrosarcoma cells (4462 proteins detected) (Homo sapiens, UniProt P49441); settings: protein INPP1, U3A cells
[11] = target: proteins of U3A human fibrosarcoma cells (4462 proteins detected) (Homo sapiens, UniProt Q14161); settings: protein GIT2; soluble abundance after heat, U3A cells
[12] = target: proteins of U3A human fibrosarcoma cells (4462 proteins detected) (Homo sapiens, UniProt Q6N063); settings: protein OGFOD2; U3A cells
[13] = target: proteins of U3A human fibrosarcoma cells (4462 proteins detected) (Homo sapiens, UniProt Q96FZ2); settings: protein HMCES, U3A cells
[14] = target: proteins of U3A human fibrosarcoma cells (4462 proteins detected) (Homo sapiens, UniProt Q9NRW3); settings: protein APOBEC3C; U3A cells
[15] = target: proteins of U3A human fibrosarcoma cells (4462 proteins detected) (Homo sapiens, UniProt P21283); settings: protein ATP6V1C1; soluble abundance after heat, U3A cells
[16] = target: proteins of U3A human fibrosarcoma cells (4462 proteins detected) (Homo sapiens, UniProt Q9UL16); settings: protein CFAP45, U3A cells
[17] = target: proteins of U3A human fibrosarcoma cells (4462 proteins detected) (Homo sapiens, UniProt Q8NAV1); settings: protein PRPF38A; U3A cells
[18] = target: proteins of U3A human fibrosarcoma cells (4462 proteins detected) (Homo sapiens, UniProt Q9H6E4); settings: protein CCDC134; U3A, 10 μM, 2 h
[19] = target: proteins of U3A human fibrosarcoma cells (4462 proteins detected) (Homo sapiens, UniProt O94925); settings: protein GLS; U3A, 10 μM, 2 h
[20] = target: proteins of U3A human fibrosarcoma cells (4462 proteins detected) (Homo sapiens, UniProt O15400); settings: protein STX7; U3A cells
[21] = target: proteins of U3A human fibrosarcoma cells (4462 proteins detected) (Homo sapiens, UniProt Q13330); settings: protein MTA1; U3A cells
[22] = target: proteins of U3A human fibrosarcoma cells (4462 proteins detected) (Homo sapiens, UniProt O75663); settings: protein TIPRL; soluble abundance after heat, U3A cells
[23] = target: proteins of U3A human fibrosarcoma cells (4462 proteins detected) (Homo sapiens, UniProt P49916); settings: protein LIG3; U3A cells
[24] = target: proteins of U3A human fibrosarcoma cells (4462 proteins detected) (Homo sapiens, UniProt O43427); settings: protein FIBP; soluble abundance after heat, U3A cells
[25] = target: proteins of U3A human fibrosarcoma cells (4462 proteins detected) (Homo sapiens, UniProt O60684); settings: protein KPNA6; U3A cells
[26] = target: proteins of U3A human fibrosarcoma cells (4462 proteins detected) (Homo sapiens, UniProt Q99873); settings: protein PRMT1, U3A cells
[27] = target: proteins of U3A human fibrosarcoma cells (4462 proteins detected) (Homo sapiens, UniProt P29034); settings: protein S100A2, U3A cells
[28] = target: proteins of U3A human fibrosarcoma cells (4462 proteins detected) (Homo sapiens, UniProt P37837); settings: protein TALDO1, U3A cells
[29] = target: proteins of U3A human fibrosarcoma cells (4462 proteins detected) (Homo sapiens, UniProt O95453); settings: protein PARN; U3A cells
[30] = target: proteins of U3A human fibrosarcoma cells (4462 proteins detected) (Homo sapiens, UniProt Q9UQ80); settings: protein PA2G4, U3A cells
Sequence of proteins of U3A human fibrosarcoma cells (4462 proteins detected) (Homo sapiens, UniProt Q9UQ80) (Q9UQ80 whole entry): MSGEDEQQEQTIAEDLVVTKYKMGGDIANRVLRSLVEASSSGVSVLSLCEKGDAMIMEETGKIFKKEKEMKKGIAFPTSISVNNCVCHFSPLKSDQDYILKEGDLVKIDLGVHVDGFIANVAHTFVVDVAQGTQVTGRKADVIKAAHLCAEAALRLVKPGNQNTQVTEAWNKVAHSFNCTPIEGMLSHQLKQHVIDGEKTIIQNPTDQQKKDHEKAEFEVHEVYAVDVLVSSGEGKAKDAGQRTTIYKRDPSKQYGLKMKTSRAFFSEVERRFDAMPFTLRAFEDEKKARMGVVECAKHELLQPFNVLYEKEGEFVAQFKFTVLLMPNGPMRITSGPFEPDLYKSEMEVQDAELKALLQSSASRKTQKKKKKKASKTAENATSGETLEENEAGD

Sequence of proteins of U3A human fibrosarcoma cells (4462 proteins detected) (Homo sapiens, UniProt P29034) (P29034 whole entry): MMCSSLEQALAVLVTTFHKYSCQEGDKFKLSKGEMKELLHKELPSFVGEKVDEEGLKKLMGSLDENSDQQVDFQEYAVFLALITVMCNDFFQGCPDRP
Sequence of proteins of U3A human fibrosarcoma cells (4462 proteins detected) (Homo sapiens, UniProt O75909) (O75909 whole entry): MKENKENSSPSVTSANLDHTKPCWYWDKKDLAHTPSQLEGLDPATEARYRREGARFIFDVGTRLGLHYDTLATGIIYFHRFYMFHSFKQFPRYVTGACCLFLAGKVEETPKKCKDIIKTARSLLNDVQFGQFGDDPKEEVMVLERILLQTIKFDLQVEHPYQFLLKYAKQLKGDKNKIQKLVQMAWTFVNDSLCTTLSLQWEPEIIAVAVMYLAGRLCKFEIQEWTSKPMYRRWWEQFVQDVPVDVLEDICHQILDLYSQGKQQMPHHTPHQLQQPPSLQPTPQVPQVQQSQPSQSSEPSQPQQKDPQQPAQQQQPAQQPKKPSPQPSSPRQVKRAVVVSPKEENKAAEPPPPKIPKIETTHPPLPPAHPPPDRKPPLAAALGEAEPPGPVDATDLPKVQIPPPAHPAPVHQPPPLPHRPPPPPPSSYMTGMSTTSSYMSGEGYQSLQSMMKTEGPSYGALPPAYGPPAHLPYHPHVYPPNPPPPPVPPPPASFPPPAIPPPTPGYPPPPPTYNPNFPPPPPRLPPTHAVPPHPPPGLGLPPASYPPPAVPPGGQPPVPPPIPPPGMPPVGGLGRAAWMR
Sequence of proteins of U3A human fibrosarcoma cells (4462 proteins detected) (Homo sapiens, UniProt Q9HC38) (Q9HC38 whole entry): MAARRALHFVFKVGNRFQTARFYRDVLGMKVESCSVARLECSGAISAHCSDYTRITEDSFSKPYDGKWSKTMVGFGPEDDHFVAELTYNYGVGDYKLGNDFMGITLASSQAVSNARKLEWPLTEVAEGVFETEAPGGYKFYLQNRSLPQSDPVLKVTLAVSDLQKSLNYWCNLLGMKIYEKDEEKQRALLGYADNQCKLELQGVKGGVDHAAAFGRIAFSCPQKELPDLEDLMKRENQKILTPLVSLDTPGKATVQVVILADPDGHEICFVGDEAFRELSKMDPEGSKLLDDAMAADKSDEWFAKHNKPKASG
Sequence of proteins of U3A human fibrosarcoma cells (4462 proteins detected) (Homo sapiens, UniProt O94925) (O94925 55-669): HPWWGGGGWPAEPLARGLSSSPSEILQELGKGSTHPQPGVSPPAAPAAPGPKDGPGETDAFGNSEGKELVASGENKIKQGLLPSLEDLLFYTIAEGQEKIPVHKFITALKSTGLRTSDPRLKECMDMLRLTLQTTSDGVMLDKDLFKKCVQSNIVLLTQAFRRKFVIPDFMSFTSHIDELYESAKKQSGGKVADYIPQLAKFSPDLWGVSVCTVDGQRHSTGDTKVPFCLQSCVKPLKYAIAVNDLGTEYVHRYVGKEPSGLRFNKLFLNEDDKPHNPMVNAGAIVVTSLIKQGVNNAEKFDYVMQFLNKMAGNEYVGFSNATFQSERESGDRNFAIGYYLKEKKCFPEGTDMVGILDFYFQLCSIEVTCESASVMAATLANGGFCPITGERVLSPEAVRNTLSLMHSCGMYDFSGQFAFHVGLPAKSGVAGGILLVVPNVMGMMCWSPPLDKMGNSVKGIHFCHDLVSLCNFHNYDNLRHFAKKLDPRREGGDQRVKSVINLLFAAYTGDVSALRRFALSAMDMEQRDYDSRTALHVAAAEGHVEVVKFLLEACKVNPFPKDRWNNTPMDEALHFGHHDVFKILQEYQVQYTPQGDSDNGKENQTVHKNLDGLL
Sequence of proteins of U3A human fibrosarcoma cells (4462 proteins detected) (Homo sapiens, UniProt Q9Y6E0) (Q9Y6E0 whole entry): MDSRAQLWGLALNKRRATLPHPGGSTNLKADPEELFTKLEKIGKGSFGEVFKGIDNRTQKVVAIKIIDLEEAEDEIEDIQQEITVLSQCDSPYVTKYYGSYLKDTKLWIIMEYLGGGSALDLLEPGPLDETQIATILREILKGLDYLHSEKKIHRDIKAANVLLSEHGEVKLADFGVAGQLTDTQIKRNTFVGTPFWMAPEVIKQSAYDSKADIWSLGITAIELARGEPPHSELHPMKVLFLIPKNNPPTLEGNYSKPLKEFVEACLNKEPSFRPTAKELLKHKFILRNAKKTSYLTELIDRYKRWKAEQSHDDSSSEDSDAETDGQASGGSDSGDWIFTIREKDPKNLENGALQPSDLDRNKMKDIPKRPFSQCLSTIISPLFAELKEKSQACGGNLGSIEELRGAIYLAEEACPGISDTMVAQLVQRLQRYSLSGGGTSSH
Sequence of proteins of U3A human fibrosarcoma cells (4462 proteins detected) (Homo sapiens, UniProt P21283) (P21283 whole entry): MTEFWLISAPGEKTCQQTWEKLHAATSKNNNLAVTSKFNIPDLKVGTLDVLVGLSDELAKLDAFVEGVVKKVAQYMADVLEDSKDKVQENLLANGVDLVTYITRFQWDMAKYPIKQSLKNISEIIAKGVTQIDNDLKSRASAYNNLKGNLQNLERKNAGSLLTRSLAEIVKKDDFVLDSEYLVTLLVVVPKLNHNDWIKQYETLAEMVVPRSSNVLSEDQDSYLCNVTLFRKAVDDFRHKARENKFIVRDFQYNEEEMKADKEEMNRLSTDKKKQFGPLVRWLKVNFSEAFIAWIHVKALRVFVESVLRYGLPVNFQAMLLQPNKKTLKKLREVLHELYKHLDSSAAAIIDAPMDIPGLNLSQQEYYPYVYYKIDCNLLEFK
Sequence of proteins of U3A human fibrosarcoma cells (4462 proteins detected) (Homo sapiens, UniProt Q14161) (Q14161 whole entry): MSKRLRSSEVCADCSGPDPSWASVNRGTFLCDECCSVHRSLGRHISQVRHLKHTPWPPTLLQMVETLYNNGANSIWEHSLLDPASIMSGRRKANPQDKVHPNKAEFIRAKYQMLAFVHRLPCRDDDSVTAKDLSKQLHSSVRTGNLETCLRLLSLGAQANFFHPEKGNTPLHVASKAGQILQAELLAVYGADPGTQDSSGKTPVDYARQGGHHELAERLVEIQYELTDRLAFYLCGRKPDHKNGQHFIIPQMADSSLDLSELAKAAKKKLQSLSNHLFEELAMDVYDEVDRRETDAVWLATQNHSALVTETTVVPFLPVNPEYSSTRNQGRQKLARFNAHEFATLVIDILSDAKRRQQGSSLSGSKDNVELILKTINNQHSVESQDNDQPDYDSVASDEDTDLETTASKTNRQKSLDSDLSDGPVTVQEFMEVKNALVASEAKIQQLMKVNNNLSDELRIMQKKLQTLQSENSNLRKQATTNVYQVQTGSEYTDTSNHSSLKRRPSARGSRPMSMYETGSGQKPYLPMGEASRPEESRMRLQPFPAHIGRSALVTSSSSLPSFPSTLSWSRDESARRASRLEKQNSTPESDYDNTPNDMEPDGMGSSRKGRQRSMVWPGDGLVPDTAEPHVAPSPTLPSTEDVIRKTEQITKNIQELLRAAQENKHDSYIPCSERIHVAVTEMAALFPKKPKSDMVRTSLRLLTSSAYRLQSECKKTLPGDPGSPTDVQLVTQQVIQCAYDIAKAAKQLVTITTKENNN
Sequence of proteins of U3A human fibrosarcoma cells (4462 proteins detected) (Homo sapiens, UniProt Q9Y266) (Q9Y266 whole entry): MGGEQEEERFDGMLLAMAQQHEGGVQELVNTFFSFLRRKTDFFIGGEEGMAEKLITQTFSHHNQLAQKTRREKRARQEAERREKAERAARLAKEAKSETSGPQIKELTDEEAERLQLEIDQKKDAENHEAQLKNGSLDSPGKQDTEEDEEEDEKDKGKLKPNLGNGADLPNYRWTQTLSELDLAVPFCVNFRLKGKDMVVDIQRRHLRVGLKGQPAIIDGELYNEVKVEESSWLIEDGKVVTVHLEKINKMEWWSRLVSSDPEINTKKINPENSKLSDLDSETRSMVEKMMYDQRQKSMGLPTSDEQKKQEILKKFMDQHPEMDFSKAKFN
Sequence of proteins of U3A human fibrosarcoma cells (4462 proteins detected) (Homo sapiens, UniProt O75663) (O75663 whole entry): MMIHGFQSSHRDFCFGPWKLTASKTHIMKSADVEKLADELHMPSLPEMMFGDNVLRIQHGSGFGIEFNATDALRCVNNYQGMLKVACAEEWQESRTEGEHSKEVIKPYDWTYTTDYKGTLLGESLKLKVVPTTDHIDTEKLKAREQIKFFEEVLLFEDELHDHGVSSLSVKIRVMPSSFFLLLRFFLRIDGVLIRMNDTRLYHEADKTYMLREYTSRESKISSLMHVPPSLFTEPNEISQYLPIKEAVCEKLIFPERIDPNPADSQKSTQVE
Sequence of proteins of U3A human fibrosarcoma cells (4462 proteins detected) (Homo sapiens, UniProt Q9NRW3) (Q9NRW3 whole entry): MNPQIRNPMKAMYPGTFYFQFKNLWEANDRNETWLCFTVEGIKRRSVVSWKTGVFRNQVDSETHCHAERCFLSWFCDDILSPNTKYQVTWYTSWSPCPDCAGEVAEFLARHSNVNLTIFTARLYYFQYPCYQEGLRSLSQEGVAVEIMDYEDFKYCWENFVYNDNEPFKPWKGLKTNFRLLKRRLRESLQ

CCc1nc(N)nc(N)c1-c1ccc(Cl)cc1 [pyrimethamine]
Log2 (PYR/DMSO) [1]: -0.04
Log2 (PYR/DMSO) [2]: 0.15
Log2 (PYR/DMSO) [3]: 0.14
Log2 (PYR/DMSO), ASMTL [4]: 0.27
Log2 (PYR/DMSO) [5]: 0.22
Log2 (PYR/DMSO) [6]: 0.16
Log2 (PYR/DMSO) [7]: 0.20
Log2 (PYR/DMSO) [8]: 0.14
Log2 (PYR/DMSO) [9]: 0.16
Log2 (PYR/DMSO) [10]: -0.04
Log2 (PYR/DMSO) [11]: 0.14
Log2 (PYR/DMSO) [12]: 0.16
Log2 (PYR/DMSO) [13]: -0.04
Log2 (PYR/DMSO) [14]: 0.22
Log2 (PYR/DMSO) [15]: 0.13
Log2 (PYR/DMSO) [16]: -0.04
Log2 (PYR/DMSO) [17]: 0.16
Log2 (PYR/DMSO), CCDC134 [18]: 0.23
Log2 (PYR/DMSO), GLS [19]: 0.24
Log2 (PYR/DMSO) [20]: 0.18
Log2 (PYR/DMSO) [21]: 0.16
Log2 (PYR/DMSO) [22]: 0.14
Log2 (PYR/DMSO) [23]: 0.16
Log2 (PYR/DMSO) [24]: 0.14
Log2 (PYR/DMSO) [25]: 0.24
Log2 (PYR/DMSO) [26]: -0.05
Log2 (PYR/DMSO) [27]: -0.04
Log2 (PYR/DMSO) [28]: -0.04
Log2 (PYR/DMSO) [29]: 0.21
Log2 (PYR/DMSO) [30]: -0.03
